Data on 17 compounds can be found in patent publication US20170112896A1, “SMALL MOLECULE RAC OR RHO INHIBITORS” (Ohio State Innovation Foundation, priority 2014, published 2017).

Where two headings read alike, the source gives them in different places. Square brackets hold non-standard residues; d marks the D form. Side chains are listed from the residue outwards. Peptide text beside a SMILES is read from it. * marks the point of attachment. His(τ-Bzl) = N[C@@H](Cc1cn(Cc2ccccc2)cn1)C(=O)O; Phe(3,4-F2) = N[C@@H](Cc1ccc(F)c(F)c1)C(=O)O; Phe(4-F) = N[C@@H](Cc1ccc(F)cc1)C(=O)O; 2Nal = N[C@@H](Cc1ccc2ccccc2c1)C(=O)O; d2Nal = N[C@H](Cc1ccc2ccccc2c1)C(=O)O; Tle = CC(C)(C)[C@H](N)C(=O)O; dNle = CCCC[C@@H](N)C(=O)O; Nle = CCCC[C@H](N)C(=O)O; X4 = O=C(c1ccc(Cl)nc1)*; Dap = NC[C@H](N)C(=O)O

The subject of one experiment is H1299 lung cancer cells. Type of experiment: cell-based. The note with it: for IC50: 72 h; for anti-proliferative activity against lung cancer cells (in words): MTT assay. The procedure:
MTT assays (Mosmann, T. (1983) J. Immunol. Methods 65:55) were performed with H1299 lung cancer cells. One hundred μL of H1299 cells (0.5×10^5 cells/mL) were seeded in each well of a 96-well culture plate and allowed to grow overnight in Advanced RPMI medium supplemented with 10% fetal bovine serum (FBS) and 1% penicillin-streptomycin. Varying concentrations of cyclic peptide (0-25 μM) were added to the each well and the cells were incubated at 37° C. with 5% CO2 for 72 hours. Ten μL of a MTT stock solution (Roche) was added into each well. The plate was incubated at 37° C. for 4 h. Then 100 μL of SDS-HCl solubilizing buffer was added into each well, and the resulting solution was mixed thoroughly. The plate was incubated at 37° C. overnight. The absorbance of the formazan product was measured at 570 nm using a Molecular Devices Spectramax M5 plate reader. Each experiment was performed in triplicates and the cells without any peptide added were treated as control.

Experiment [1] concerns the target T1, Ras(G12V)-Raf RBD interaction (Homo sapiens, UniProt P01116, G12V).
T1 construct: The G12V mutant K-Ras (amino acids 1-185) was recombinantly fused to glutathione 5-transferase (GST) at its N-terminus; GST (N, cleaved yes); made in house; host or cells: Escherichia coli BL21
Kind of experiment: HTRF assay, inhibition of Ras-Raf RBD interaction. To be noted: for IC50: read-out: HTRF IC50. In kind it is binding. In general terms: Time-resolved FRET reads energy transfer from a long-lived donor to a nearby acceptor.
Protocol: Recombinant HA-tagged K-Ras (no GST, 50 nM), GST-Raf RBD (50 nM each), a monoclonal anti-HA antibody labeled with acceptor d2 (2 μg/mL), a monoclonal anti-GST antibody labeled with donor Tb (0.25 μg/mL) (Cisbio), and increasing concentrations of cyclic peptide (0-20 μM) were mixed in PBS (total volume of 20 μL) in a 384-well plate. The plate was incubated overnight at 4° C. and the HTRF signal was measured on a Molecular Devices Spectramax M5 or a Tecan infinite M1000 Pro plate reader. The data were analyzed by Prism 6.0 from Graphpad Software, Inc. (La Jolla, Calif.) and IC50 values were obtained by fitting the data to dose-response-inhibition curve.

Where [2] appears, read: inhibition of Ras-Raf interaction, unlabeled peptide.

T1 sequence (P01116 1-185 isoform P01116-2 G12V): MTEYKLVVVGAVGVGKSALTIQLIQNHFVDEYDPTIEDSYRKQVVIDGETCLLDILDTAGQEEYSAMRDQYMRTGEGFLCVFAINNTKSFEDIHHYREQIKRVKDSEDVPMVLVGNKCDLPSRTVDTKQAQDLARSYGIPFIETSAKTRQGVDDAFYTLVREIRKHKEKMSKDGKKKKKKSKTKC

A word on the IC50: it is the midpoint of a concentration-inhibition curve. Take `CCCC[C@H]1NC(=O)[C@H](Cc2ccc(F)cc2)NC(=O)[C@H](CCCNC(=N)N)NC(=O)[C@H](Cc2ccc3ccccc3c2)NC(=O)[C@H](CCCNC(=N)N)NC(=O)[C@H](CCCNC(=N)N)NC(=O)[C@H](CCCNC(=N)N)NC(=O)[C@@H](C)NC(=O)[C@H]([C@@H](C)O)NC(=O)[C@H](Cc2c[nH]c3ccccc23)NC(=O)[C@H](CCC(N)=O)NC1=O` [Cyclorasin 9A55] (cyclo(WT[dA]RRR[2Nal]R[Phe(4-F)][dNle]Q)): half-maximal inhibition with H1299 lung cancer cells (IC50) required 12 ± 1 µM.
In the experiment with H1299 lung cancer cells, `CCCC[C@H]1NC(=O)[C@H](Cc2ccc(F)cc2)NC(=O)[C@H](CCCNC(=N)N)NC(=O)[C@@H](Cc2ccc3ccccc3c2)NC(=O)[C@H](CCCNC(=N)N)NC(=O)[C@H](CCCNC(=N)N)NC(=O)[C@@H](CCCNC(=N)N)NC(=O)[C@@H](C(C)C)NC(=O)[C@H](C(C)(C)C)NC(=O)[C@H](Cc2c[nH]c3ccccc23)NC(=O)[C@H](CCC(N)=O)NC1=O` [Cyclorasin 9A53] (cyclo(W[Tle][dV][dR]RR[d2Nal]R[Phe(4-F)][dNle]Q)) had an IC50 of 13 ± 1 µM.
On the same count and under the same terms, the result for `CCCC[C@H]1NC(=O)[C@H](Cc2ccccc2)NC(=O)[C@H](CCCNC(=N)N)NC(=O)[C@@H](Cc2ccc3ccccc3c2)NC(=O)[C@H](CCCNC(=N)N)NC(=O)[C@H](CCCNC(=N)N)NC(=O)[C@@H](CCCNC(=N)N)NC(=O)[C@@H](C)NC(=O)[C@H]([C@@H](C)O)NC(=O)[C@H](Cc2c[nH]c3ccccc23)NC(=O)[C@H](CCC(N)=O)NC1=O` [Cyclorasin 9A12] reads 9.6 ± 1.3 µM.
For `C[C@H]1NC(=O)[C@H]([C@@H](C)O)NC(=O)[C@H](Cc2c[nH]c3ccccc23)NC(=O)[C@H](CCC(N)=O)NC(=O)[C@@H](CCCNC(=N)N)NC(=O)[C@H](Cc2ccc(F)cc2)NC(=O)[C@H](CCCNC(=N)N)NC(=O)[C@@H](Cc2ccc3ccccc3c2)NC(=O)[C@H](CCCNC(=N)N)NC(=O)[C@H](CCCNC(=N)N)NC(=O)[C@H](CCCNC(=N)N)NC1=O` [Cyclorasin 9A45] (cyclo(WT[dA]RRR[d2Nal]R[Phe(4-F)][dR]Q)), the “increase of Ras binding affinity by substitution” value in experiment [1] (relative to parent 9A5/9A6) is recorded as 4 fold. Besides, it took 8.9 ± 2.1 µM to reach half-maximal inhibition in the experiment on H1299 lung cancer cells (IC50).
In the experiment with H1299 lung cancer cells, `CCCC[C@H]1NC(=O)[C@H](Cc2ccc(F)cc2)NC(=O)[C@H](CCCNC(=N)N)NC(=O)[C@@H](Cc2ccc3ccccc3c2)NC(=O)[C@H](CCCNC(=N)N)NC(=O)[C@H](CCCNC(=N)N)NC(=O)[C@H](CCC(=O)N[C@@H](CCCCN)C(N)=O)NC(=O)[C@@H](C)NC(=O)[C@H]([C@@H](C)O)NC(=O)[C@H](Cc2c[nH]c3ccccc23)NC(=O)[C@H](CCC(N)=O)NC1=O` [Cyclorasin 9A1] (cyclo(RR[d2Nal]R[Phe(4-F)][dNle]QWT[dA]E([Lys-NH2]))) showed an IC50 of 13 ± 2 µM.
Consider `CCCC[C@H]1NC(=O)[C@H](Cc2ccc(F)c(F)c2)NC(=O)[C@H](CCCNC(=N)N)NC(=O)[C@@H](Cc2ccc3ccccc3c2)NC(=O)[C@H](CCCNC(=N)N)NC(=O)[C@H](CCCNC(=N)N)NC(=O)[C@H](CCCNC(=N)N)NC(=O)[C@@H](C(C)C)NC(=O)[C@H](C(C)(C)C)NC(=O)[C@H](Cc2c[nH]c3ccccc23)NC(=O)[C@H](CCC(N)=O)NC1=O` [Cyclorasin 9A54] (cyclo(W[Tle][dV]RRR[d2Nal]R[Phe(3,4-F2)][dNle]Q)), for which, in the experiment with H1299 lung cancer cells, the IC50 came out at 7.2 ± 0.4 µM and the “anti-proliferative activity against lung cancer cells (in words)” value is on record as “less effective”.
With `CCCC[C@H]1NC(=O)[C@H](Cc2ccc(F)cc2)NC(=O)[C@H](CCCNC(=N)N)NC(=O)[C@@H](Cc2ccc3ccccc3c2)NC(=O)[C@H](CCCNC(=N)N)NC(=O)[C@H](CCCNC(=N)N)NC(=O)[C@H](CCCNC(=N)N)NC(=O)[C@@H](C)NC(=O)[C@H]([C@@H](C)O)NC(=O)[C@H](Cc2ccc3ccccc3c2)NC(=O)[C@H](CCC(N)=O)NC1=O` [Cyclorasin 9A49] (cyclo([2Nal]T[dA]RRR[d2Nal]R[Phe(4-F)][dNle]Q)), the IC50 with H1299 lung cancer cells came to 6.3 ± 0.4 µM.
On to `CCCC[C@H]1NC(=O)[C@H](Cc2ccc(F)cc2)NC(=O)[C@H](CCCNC(=N)N)NC(=O)[C@@H](Cc2ccc3ccccc3c2)NC(=O)[C@H](CCCNC(=N)N)NC(=O)[C@H](CCCNC(=N)N)NC(=O)[C@H](CCCNC(=N)N)NC(=O)[C@@H](C(C)C)NC(=O)[C@H](C(C)(C)C)NC(=O)[C@H](Cc2c[nH]c3ccccc23)NC(=O)[C@H](CCC(N)=O)NC1=O` [Cyclorasin 9A48] (cyclo(W[Tle][dV]RRR[d2Nal]R[Phe(4-F)][dNle]Q)), for which the IC50 with H1299 lung cancer cells came to 11 ± 3 µM.
On to `CCCC[C@H]1NC(=O)[C@H](Cc2ccc(O)cc2)NC(=O)[C@H](CCCNC(=N)N)NC(=O)[C@@H](Cc2ccc3ccccc3c2)NC(=O)[C@H](CCCNC(=N)N)NC(=O)[C@H](CCCNC(=N)N)NC(=O)[C@@H](CCCNC(=N)N)NC(=O)[C@@H](C)NC(=O)[C@H]([C@@H](C)O)NC(=O)[C@H](Cc2c[nH]c3ccccc23)NC(=O)[C@H](CCC(N)=O)NC1=O` [Cyclorasin 9A13] (cyclo(QWT[dA][dR]RR[d2Nal]RY[dNle])), for which, in experiment [1] (setting [2]), the IC50 is more than 20000 nM.
In the case of `CCCC[C@H]1NC(=O)[C@H](Cc2ccc(F)cc2)NC(=O)[C@H](CCCNC(=N)N)NC(=O)[C@@H](Cc2ccc3ccccc3c2)NC(=O)[C@H](CCCNC(=N)N)NC(=O)[C@H](CCCNC(=N)N)NC(=O)[C@H](CCCNC(=N)N)NC(=O)[C@@H](C)NC(=O)[C@H]([C@@H](C)O)NC(=O)[C@H](Cc2cn(Cc3ccccc3)cn2)NC(=O)[C@H](CCC(N)=O)NC1=O` [Cyclorasin 9A7] (cyclo([Phe(4-F)][dNle]Q[His(τ-Bzl)]T[dA]RRR[d2Nal]R)), the IC50 in the experiment with H1299 lung cancer cells is 10 ± 1 µM.
Consider `C[C@H]1NC(=O)[C@H]([C@@H](C)O)NC(=O)[C@H](Cc2c[nH]c3ccccc23)NC(=O)[C@H](CCC(N)=O)NC(=O)[C@@H](CCCNC(=N)N)NC(=O)[C@H](Cc2ccc(F)c(F)c2)NC(=O)[C@H](CCCNC(=N)N)NC(=O)[C@@H](Cc2ccc3ccccc3c2)NC(=O)[C@H](CCCNC(=N)N)NC(=O)[C@H](CCCNC(=N)N)NC(=O)[C@H](CCCNC(=N)N)NC1=O` [Cyclorasin 9A52] (cyclo([Phe(3,4-F2)][dR]QWT[dA]RRR[d2Nal]R)), for which the half-maximal inhibitory concentration (IC50) in experiment [1] (setting [2]) is more than 1000 nM.
`CC(C)[C@H]1NC(=O)[C@H](C(C)(C)C)NC(=O)[C@H](Cc2c[nH]c3ccccc23)NC(=O)[C@H](CCC(N)=O)NC(=O)[C@@H](CCCNC(=N)N)NC(=O)[C@H](Cc2ccc(F)c(F)c2)NC(=O)[C@H](CCCNC(=N)N)NC(=O)[C@@H](Cc2ccc3ccccc3c2)NC(=O)[C@H](CCCNC(=N)N)NC(=O)[C@H](CCCNC(=N)N)NC(=O)[C@H](CCCNC(=N)N)NC1=O` [Cyclorasin 9A50] (cyclo([Phe(3,4-F2)][dR]QW[Tle][dV]RRR[d2Nal]R)): the 50% inhibitory concentration (IC50) in experiment [1] (setting [2]) is more than 1000 nM.
`CCCC[C@H]1NC(=O)[C@H](Cc2ccc(F)cc2)NC(=O)[C@H](CCCNC(=N)N)NC(=O)[C@@H](Cc2ccc3ccccc3c2)NC(=O)[C@H](CCCNC(=N)N)NC(=O)[C@H](CCCNC(=N)N)NC(=O)[C@@H](CCCNC(=N)N)NC(=O)[C@@H](CC(C)C)NC(=O)[C@H]([C@@H](C)O)NC(=O)[C@H](Cc2c[nH]c3ccccc23)NC(=O)[C@H](CCC(N)=O)NC1=O` [Cyclorasin 9A15] (cyclo(WT[dL][dR]RR[d2Nal]R[Phe(4-F)][dNle]Q)) showed an IC50 with H1299 lung cancer cells of 12 ± 1 µM.
The compound `CC(C)C[C@H]1NC(=O)[C@H](Cc2ccc(F)cc2)NC(=O)[C@H](CCCNC(=N)N)NC(=O)[C@@H](Cc2ccc3ccccc3c2)NC(=O)[C@H](CCCNC(=N)N)NC(=O)[C@H](CCCNC(=N)N)NC(=O)[C@@H](CCCNC(=N)N)NC(=O)[C@@H](C)NC(=O)[C@H]([C@@H](C)O)NC(=O)[C@H](Cc2c[nH]c3ccccc23)NC(=O)[C@H](CCC(N)=O)NC1=O` [Cyclorasin 9A10] (cyclo(WT[dA][dR]RR[d2Nal]R[Phe(4-F)][dL]Q)) gave an IC50 with H1299 lung cancer cells of 10 ± 3 µM.
For the compound `CCCC[C@H]1NC(=O)[C@H](CNC(=O)c2ccc(Cl)nc2)NC(=O)[C@H](CCCNC(=N)N)NC(=O)[C@@H](Cc2ccc3ccccc3c2)NC(=O)[C@H](CCCNC(=N)N)NC(=O)[C@H](CCCNC(=N)N)NC(=O)[C@H](CCCNC(=N)N)NC(=O)[C@@H](C)NC(=O)[C@H](C(C)(C)C)NC(=O)[C@H](Cc2c[nH]c3ccccc23)NC(=O)[C@H](CCC(N)=O)NC1=O` [Cyclorasin 9A44b] (cyclo(W[Tle][dA]RRR[d2Nal]R[Dap](X4)[dNle]Q)), in experiment [1], the IC50 came to 520 ± 160 nM.
In the case of `CCCC[C@H]1NC(=O)[C@H](Cc2ccc(F)c(F)c2)NC(=O)[C@H](CCCNC(=N)N)NC(=O)[C@@H](Cc2ccc3ccccc3c2)NC(=O)[C@H](CCCNC(=N)N)NC(=O)[C@H](CCCNC(=N)N)NC(=O)[C@@H](CCCNC(=N)N)NC(=O)[C@@H](C(C)C)NC(=O)[C@H](C(C)(C)C)NC(=O)[C@H](Cc2c[nH]c3ccccc23)NC(=O)[C@H](CCC(N)=O)NC1=O` [Cyclorasin 9A51] (cyclo(W[Tle][dV][dR]RR[d2Nal]R[Phe(3,4-F2)][dNle]Q)), in the experiment with H1299 lung cancer cells, half-maximal inhibition (IC50) was put at 6.7 ± 0.8 µM and the “anti-proliferative activity against lung cancer cells (in words)” value is recorded as “less effective”.
Turning to `CCCC[C@H](NC(=O)CC[C@@H]1NC(=O)[C@@H](C)NC(=O)[C@H]([C@@H](C)O)NC(=O)[C@H](Cc2c[nH]c3ccccc23)NC(=O)[C@H](CCC(N)=O)NC(=O)[C@@H](CCCC)NC(=O)[C@H](Cc2ccc(F)cc2)NC(=O)[C@H](CCCNC(=N)N)NC(=O)[C@@H](Cc2ccc3ccccc3c2)NC(=O)[C@H](CCCNC(=N)N)NC(=O)[C@H](CCCNC(=N)N)NC1=O)C(N)=O` [Cyclorasin 9A4] (cyclo(RR[d2Nal]R[Phe(4-F)][dNle]QWT[dA]E([Nle-NH2]))), the half-inhibitory concentration (IC50) in experiment [1] (setting [2]) was determined as 500 ± 100 nM.
